One test has as its system E. coli ATCC25922 strain. The experiment in a line: MIC 50, broth micro-dilution, wild-type Escherichia coli. The following applies: MH2, 18 h. The test is classed as cell-based. Put shortly:
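E. coli ATCC 25922, parental or carrying resistance/vector plasmids (plasmid strains selected with 50 μg/mL kanamycin A), inoculated at OD600 0.1 in MH2 broth with two-fold compound dilutions, final 64 μM–31.3 nM, in triplicate. Incubated 18 h, 37° C, shaking. OD600 read; MIC50 = first concentration where growth reached half of maximum.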
(Broth dilution looks for growth in wells or tubes with falling amounts of substance.)

The test system of another test is E. coli (APH(3′)Ia). As to the kind of experiment: MIC 50, broth micro-dilution, E. coli expressing APH(3′)Ia. The test is classed as cell-based, Escherichia coli. Put shortly: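 MIC50 marks the concentration at which growth reaches half its maximum, judged from OD600 of triplicate MH2 cultures after 18 h at 37° C. Strains are E. coli ATCC 25922 expressing the indicated resistance enzyme; compound spans 64 μM-31.3 nM.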

Where [1] appears, read: Escherichia coli, ATCC25922, 18 h.
[2] abbreviates: Escherichia coli, ATCC25922, ATCC25922 harboring plasmid encoding APH(3′)Ia.
The mark [3] stands for this setting: ATCC25922 harboring plasmid encoding APH(3′)Ia.

Each structure is given as a SMILES string. ≈ marks a conversion by molar mass, not a printed value. Read-outs that look alike come from different tables or passages of the source.

For the compound `N=C(NC[C@@H]1CCNC1)NC1[C@@H](O)C(OC2[C@@H](F)[C@H](O[C@H]3OC(CN)[C@@H](O)CC3N)C(N)C[C@H]2NC(=O)[C@@H](O)CCN)O[C@H](CO)[C@H]1O` (stereo partly drawn) [ABX5039, Tobra-AHB-F-Gua (R) pyrrolidine-3-ylmethyl], the MIC50 in the test with E. coli ATCC25922 strain (setting [1]) and in the test on E. coli (APH(3′)Ia) (setting [2]) was 0.25 µM (≈ 0.174 µg/mL) each time.
In the case of `CNCCNC(=N)NC1[C@@H](O)C(OC2[C@@H](F)[C@H](O[C@H]3OC(CN)[C@@H](O)CC3N)C(N)C[C@H]2NC(=O)[C@@H](O)CCN)O[C@H](CO)[C@H]1O` (some centres unmarked) [ABX5038, Tobra-AHB-F-Gua 2-(methylamino)ethyl], the figures for the MIC50 against E. coli ATCC25922 strain (setting [1]) and with E. coli (APH(3′)Ia) (setting [2]) were 0.25 µM (≈ 0.167 µg/mL) and 0.5 µM (≈ 0.335 µg/mL), respectively.
Take `N=C(NCc1ccncc1)NC1[C@@H](O)C(OC2[C@@H](F)[C@H](O[C@H]3OC(CN)[C@@H](O)CC3N)C(N)C[C@H]2NC(=O)[C@@H](O)CCN)O[C@H](CO)[C@H]1O` (some centres unmarked) [ABX5048, Tobra-AHB-F-Gua pyridin-4-yl methyl]: the MIC50 in the test with E. coli ATCC25922 strain (setting [1]) and with E. coli (APH(3′)Ia) (setting [2]) was 1 µM (≈ 0.704 µg/mL) throughout.
`N=C(N)NC1[C@@H](O)C(OC2[C@@H](O)[C@H](O[C@H]3OC(CN)[C@@H](O)CC3N)C(N)C[C@H]2NC(=O)[C@@H](O)CCN)O[C@H](CO)[C@H]1O` (some centres unmarked) [ABX5005, Tobra-AHB-Gua]: the “MIC50” value lay within 1 to 2 µM against E. coli ATCC25922 strain and 2 to 4 µM in the test on E. coli (APH(3′)Ia) (setting [3]).
Turning to `N=C(NCCCN)NC1[C@@H](O)C(OC2[C@@H](F)[C@H](O[C@H]3OC(CN)[C@@H](O)CC3N)C(N)C[C@H]2NC(=O)[C@@H](O)CCN)O[C@H](CO)[C@H]1O` (some centres unmarked) [ABX5030, Tobra-AHB-F-Gua-3-amino-propyl], the MIC50 against E. coli ATCC25922 strain (setting [1]) was 0.25 µM (≈ 0.167 µg/mL); with E. coli (APH(3′)Ia) (setting [2]), 2 µM (≈ 1.34 µg/mL).
With `N=C(NCCO)NC1[C@@H](O)C(OC2[C@@H](F)[C@H](O[C@H]3OC(CN)[C@@H](O)CC3N)C(N)C[C@H]2NC(=O)[C@@H](O)CCN)O[C@H](CO)[C@H]1O` (some centres unmarked) [ABX5029, Tobra-AHB-F-Gua 2-hydroxy-ethyl], the MIC50 against E. coli ATCC25922 strain (setting [1]) was 0.5 µM (≈ 0.328 µg/mL); against E. coli (APH(3′)Ia) (setting [2]), 2 µM (≈ 1.31 µg/mL).
The like results for `N=C(NC[C@@H]1CCCN1)NC1[C@@H](O)C(OC2[C@@H](F)[C@H](O[C@H]3OC(CN)[C@@H](O)CC3N)C(N)C[C@H]2NC(=O)[C@@H](O)CCN)O[C@H](CO)[C@H]1O` (stereo partly drawn) [ABX5026, Tobra-AHB-F-Gua (S) pyrrolidine-2-yl-methyl] were, in that order, 0.25 µM (≈ 0.174 µg/mL) and 1 µM (≈ 0.696 µg/mL).
The like results for `N=C(NC[C@H]1CCNC1)NC1[C@@H](O)C(OC2[C@@H](F)[C@H](O[C@H]3OC(CN)[C@@H](O)CC3N)C(N)C[C@H]2NC(=O)[C@@H](O)CCN)O[C@H](CO)[C@H]1O` (stereo partly drawn) [ABX5042, Tobra-AHB-F-Gua (S) pyrrolidine-3-ylmethyl] were, in that order, 0.25 µM (≈ 0.174 µg/mL) and 0.25 µM (≈ 0.174 µg/mL).
The like results for `N=C(N)NC1[C@@H](O)C(OC2[C@@H](F)[C@H](O[C@H]3OC(CN)[C@@H](O)[C@H](O)C3O)C(N)C[C@H]2NC(=O)[C@@H](O)CCN)O[C@H](CO)[C@H]1O` (stereo partly drawn) [ABX3003, 3′epi-KanaA-AHB-F-Gua] were, in that order, 2 µM (≈ 1.26 µg/mL) and 8 µM (≈ 5.04 µg/mL).
Regarding `NCC[C@H](O)C(=O)N[C@@H]1C[C@H](N)[C@@H](O[C@H]2O[C@H](CN)[C@@H](O)[C@H](O)[C@H]2O)[C@H](O)[C@H]1O[C@H]1O[C@H](CO)[C@@H](O)[C@H](N)[C@H]1O` [Amikacin, amikacin, reference compound], the MIC50 was 2 µM (≈ 1.17 µg/mL) with E. coli ATCC25922 strain (Escherichia coli, read-out: MIC 50) and 8 µM (≈ 4.68 µg/mL) with E. coli (APH(3′)Ia) (setting [2]).
As to `N=C(N)NC1[C@@H](O)C(OC2[C@@H](O)[C@H](O[C@H]3OC(CN)[C@@H](O)[C@H](O)C3N)C(N)C[C@H]2NC(=O)[C@@H](O)CCN)O[C@H](CO)[C@H]1O` (some centres unmarked) [ABX4009, KanaB-AHB-Gua], the “MIC50” value was 2 µM (≈ 1.25 µg/mL) against E. coli ATCC25922 strain and 8 µM (≈ 5.01 µg/mL) in the test on E. coli (APH(3′)Ia) (setting [3]).
`N=C(N)NC1[C@@H](O)C(OC2[C@@H](F)[C@H](O[C@H]3OC(CNCCO)[C@@H](O)CC3N)C(N)C[C@H]2NC(=O)[C@@H](O)CCN)O[C@H](CO)[C@H]1O` (some centres unmarked) [ABX5045, 6N-2-hydroxy-ethyl-Tobra-AHB-F-Gua]: the MIC50 against E. coli ATCC25922 strain (setting [1]) and against E. coli (APH(3′)Ia) (setting [2]) was 1 µM (≈ 0.657 µg/mL) in each case.
On to `NCC[C@H](O)C(=O)N[C@@H]1CC(N)[C@@H](O[C@H]2OC(CN)[C@@H](O)[C@@H](O)C2N)[C@H](O)C1OC1O[C@H](CO)[C@@H](O)C(N)[C@H]1O` (stereo partly drawn) [ABX4002, 3′Epi-KanaB-AHB], for which the “MIC50” value in the test with E. coli ATCC25922 strain is 8 µM (≈ 4.68 µg/mL); against E. coli (APH(3′)Ia) (setting [3]), 8 to 16 µM.
